In patent US20220135567A1, “TYK2 PSEUDOKINASE LIGANDS” (Ventyx Biosciences, Inc., priority 2019, published 2022) one finds IC50 data, which are given here for 25 compounds.

The subject of the assay is IFN-a/Jak1Tyk2. Nature of the assay: Co-stimulation assay in lysed whole blood: IFNa (JAK1/TYK2) stimulated STAT1 phosphorylation. Type of assay: cell-based. The settings on record: lysed human whole blood, IFNa 100 ng/mL + GM-CSF 10 ng/mL, pSTAT1 by flow cytometry. The procedure: Dilute RBC lysis buffer to 1× in distilled water. Add 2 mL blood to 38 mL of 1×RBC-lysis buffer. Incubate for 15 mins at RT, in dark. Spin at 300 g, 5 mins, to collect the pellet. Re-lyse if necessary. Re-suspend pellet in 5 mL of cRPMI.
Aliquot 80 μL of lysed human blood in to wells of 96 deep-well plate. Add 10 μl of (10× conc.) of different concentrations of compounds to all wells except controls (unstained and unstimulated) and mix it with the help of 100 uL multichannel. Add 10 uL of RPMI media in controls. For dilution of compounds and dilution range please refer Appendix. Incubate on water bath or CO2 incubator for 1 hour at 37° C. Add 10 μl of (10× conc.) of cytokine mix (GM-CSF and IFNa) (final conc. 10 ng/mL of GM-CSF and 100 ng/mL of IFNa) to each well except unstimulated and unstained controls and incubate further for 20 minutes on water bath at 37° C.
Add 900 μL of prewarmed 1× Fix/Lyse solution (Appendix) and mix it properly using 1000 μl multichannel, incubate further on water bath at 37° C. for 10 minutes (which includes time of addition). Centrifuge at 800×g for 5 minutes at 40° C.; remove 900 uL of supernatant and add 900 μL of 1×PBS. Centrifuge at 800×g for 5 minutes at 40° C., remove 900 μL of supernatant. Wash one more time with 900 μL of PBS (optional) and resuspend pellets in 100 uL of PBS.
Disrupt the pellet by gentle tapping and resuspend in 1000 μL of BD Phosflow Perm Buffer III and incubate plate on ice for 30 minutes. Centrifuge plate at 800×g for 5 minutes at 40° C. Wash two more times with 1000 μL of BD Pharmingen Stain Buffer.
Disrupt the pellet by gentle tapping. Resuspend pellets in 100 uL of Stain Buffer and add 5 μL of pSTAT5_AF488 Ab and 5 uL of pSTAT1_PE in all wells except unstained control and mix properly using 200 μl multichannel, incubate overnight at […]. Add 900 μL of wash buffer and centrifuge at 1800 rpm for 3 minutes at […]. Wash one more time with 1000 μL of BD Pharmingen Stain Buffer. Finally resuspend the pellet in 300 uL of BD Pharmingen Stain Buffer. Transfer the cells to 96-well v-bottom plate and acquire the cells in Beckman Coulter CytExpert. Acquiring cells in Flow Cytometer: Keep the threshold value to 250 and cell concentration should not exceed 100-500 cells/μL. Acquire at least 5,000-10,000 cells.
Cytokine dilution: 1) GM-CSF Stock at 100 ug/mL. Prepare an intermediate dilution of 1 ug/mL by adding 2 uL of stock into 198 uL of cRPMI. Further dilute to 100 ng/mL by adding 100 uL of the intermediate stock to 900 uL of cRPMI. 2) IFNa Stock at 200 ug/mL. Dilute IFNa stock 1:200 by adding 5 uL of stock into the 1000 uL of 100 ng/mL GM-CSF working stock as above to give a combined working stock of 1000 ng/mL of IFNa and 100 ng/mL GM-CSF (10×). Keep it on ice until used.
Lyse/Fix buffer preparation: Dilute 5× Lyse/Fix buffer to 1× using MQ water and keep at 37° C. until used.
BD Phosflow perm buffer III: Keep on ice/fridge.

Broadly, the IC50 is the concentration that gives 50% inhibition. For `CNC(=O)c1cnn2c(NC)cc(Nc3cc(C)cc(C)c3)nc12` [Compound 9, 5-((3,5-dimethylphenyl)amino)-N-methyl-7-(methylamino)pyrazole [1,5-a]pyrimidine-3-carboxamide], under “20 minutes”, the IC50 was in the range of 1000 to 10000 nM.

Turning to `CNc1cc(Nc2cc(C)cc(C)c2)nc2c(C(N)=O)cnn12` [Compound 10, 5-((3,5-dimethylphenyl)amino)-7-(methylamino)pyrazole[1,5-a]pyrimidine-3-carboxamide], the IC50 (20 minutes) was under 100 nM.

`CNc1cc(Nc2cc(F)cc(F)c2OC)nc2c(C(N)=O)cnn12` [Compound 13, 5-((3,5-difluoro-2-methoxyphenyl)amino)-7-(methylamino)pyrazole[1,5-a]pyrimidine-3-carboxamide]: where the note is “20 minutes”, the IC50 was under 100 nM.

Turning to `CNc1cc(Nc2ccccc2OC)nc2c(C(=O)NC3CC3)cnn12` [Compound 16, N-cyclopropyl-5-((2-methoxyphenyl)amino)-7-(methylamino)pyrazolo[1,5-a]pyrimidine-3-carboxamide], the IC50 (20 min) is under 100 nM.

For `CNc1cc(Nc2c(F)c(F)cc(F)c2F)nc2c(C(=O)NC3CC3)cnn12` [Compound 17, N-cyclopropyl-7-(methylamino)-5-((2,3,5,6-tetrafluorophenyl)amino)pyrazolo[1,5-a]pyrimidine-3-carboxamide], the IC50 (20 min) was under 100 nM.

As for `CNc1cc(Nc2cc(F)cc(F)c2OC)nc2c(C(=O)NC3CC3)cnn12` [Compound 19], for the setting “20 minutes”, the IC50 is under 100 nM.

Consider `CNc1cc(Nc2cccc3c2OCCO3)nc2c(C(=O)NC3CC3)cnn12` [Compound 20, N-cyclopropyl-5-((2,3-dihydrobenzo[b][1,4]dioxin-5-yl)amino)-7-(methylamino)pyrazolo[1,5-a]pyrimidine-3-carboxamide], for which, where the note is “20 min”, the IC50 is under 100 nM.

Turning to `CNc1cc(Nc2ccccc2OC)nc2c(C(=O)NCC(C)(C)CO)cnn12` [Compound 22, N-(3-hydroxy-2,2-dimethylpropyl)-5-((2-methoxyphenyl)amino)-7-(methylamino)pyrazolo[1,5-a]pyrimidine-3-carboxamide], the IC50 (20 min) is under 100 nM.

For the compound `CNc1cc(Nc2cc(F)cc(F)c2OC)nc2c(C(=O)NCC(C)(C)CO)cnn12` [Compound 23, 5-((3,5-difluoro-2-methoxyphenyl)amino)-N-(3-hydroxy-2,2-dimethylpropyl)-7-(methylamino)pyrazolo[1,5-a]pyrimidine-3-carboxamide], the IC50 (20 min) was under 100 nM.

As for `CNc1cc(Nc2c(F)c(F)cc(F)c2F)nc2c(C(=O)NCC(C)(C)CO)cnn12` [Compound 24, N-(3-hydroxy-2,2-dimethylpropyl)-7-(methylamino)-5-((2,3,5,6-tetrafluorophenyl)amino)pyrazolo[1,5-a]pyrimidine-3-carboxamide], the IC50 (20 min) was under 100 nM.

As to `CNc1cc(Nc2cccc3c2OCCO3)nc2c(C(=O)NCC(C)(C)CO)cnn12` [Compound 25, 5-((2,3-dihydrobenzo[b][1,4]dioxin-5-yl)amino)-N-(3-hydroxy-2,2-dimethylpropyl)-7-(methylamino)pyrazolo[1,5-a]pyrimidine-3-carboxamide], the half-inhibitory concentration (IC50) (20 min) was under 100 nM.

In the case of `CNc1cc(Nc2cc(F)cc(F)c2OC)nc2c(C(=O)NCC(C)(O)CO)cnn12` (stereo not shown) [Compound 26, 5-((3,5-difluoro-2-methoxyphenyl)amino)-N-(2,3-dihydroxy-2-methylpropyl)-7-(methylamino)pyrazolo[1,5-a]pyrimidine-3-carboxamide], the IC50 (20 min) was under 100 nM.

With `CNc1cc(Nc2ccc3c(c2)OCCO3)nc2c(C(=O)NC3CC3)cnn12` [Compound 27, N-cyclopropyl-5-((2,3-dihydrobenzo [b][1,4]dioxin-6-yl)amino)-7-(methylamino)pyrazolo[1,5-a]pyrimidine-3-carboxamide], the IC50 (20 min) was under 100 nM.

In the case of `CNc1cc(Nc2ccccc2C(=O)OC)nc2c(C(=O)NC3CC3)cnn12` [Compound 28, methyl 2-((3-(cyclopropylcarbamoyl)-7-(methylamino)pyrazolo[1,5-a]pyrimidin-5-yl)amino)benzoate], the IC50 (20 min) fell in the range of 100 to 1000 nM.

For `CNc1cc(Nc2cccc(C(=O)OC)c2)nc2c(C(=O)NC3CC3)cnn12` [Compound 29, methyl 3-((3-(cyclopropylcarbamoyl)-7-(methylamino)pyrazolo[1,5-a]pyrimidin-5-yl)amino)benzoate], for the setting “20 min”, the half-maximal inhibitory concentration (IC50) lay in the range of 100 to 1000 nM.

As for `CNc1cc(Nc2cccnc2C)nc2c(C(=O)NC3CC3)cnn12` [Compound 31, N-cyclopropyl-7-(methylamino)-5-((2-methylpyridin-3-yl)amino)pyrazolo[1,5-a]pyrimidine-3-carboxamide], the IC50 (20 min) was over 300 nM.

For the compound `CNc1cc(Nc2cccn(-c3cc(C)n(C)n3)c2=O)nc2c(C(=O)NC3CC3)cnn12` [Compound 32, N-cyclopropyl-5-((1-(1,5-dimethyl-1H-pyrazol-3-yl)-2-oxo-1,2-dihydropyridin-3-yl)amino)-7-(methylamino)pyrazolo[1,5-a]pyrimidine-3-carboxamide], where the note is “20 min”, the IC50 was 100 to 1000 nM.

`CNc1cc(Nc2cccn(-c3ccccn3)c2=O)nc2c(C(=O)NC3CC3)cnn12` [Compound 33, N-cyclopropyl-7-(methylamino)-5-((2-oxo-2H-[1,2′-bipyridin]-3-yl)amino)pyrazolo[1,5-a]pyrimidine-3-carboxamide]: the 50% inhibitory concentration (IC50) (20 min) is under 100 nM.

Consider `CNc1cc(Nc2ccccc2-n2cccn2)nc2c(C(=O)NC3CC3)cnn12` [Compound 34, 5-((2-(1H-pyrazol-1-yl)phenyl)amino)-N-cyclopropyl-7-(methylamino)pyrazolo[1,5-a]pyrimidine-3-carboxamide], for which, for the setting “20 min”, the IC50 is over 300 nM.

Take `CNc1cc(Nc2cscc2C(=O)O)nc2c(C(=O)NC3CC3)cnn12` [Compound 36, 4-((3-(cyclopropylcarbamoyl)-7-(methylamino)pyrazolo[1,5-a]pyrimidin-5-yl)amino)thiophene-3-carboxylic acid]: the IC50 (20 min) is over 300 nM.

Consider `CCOC(=O)c1cscc1Nc1cc(NC)n2ncc(C(=O)NC3CC3)c2n1` [Compound 37, ethyl 4-((3-(cyclopropylcarbamoyl)-7-(methylamino)pyrazolo[1,5-a]pyrimidin-5-yl)amino)thiophene-3-carboxylate], for which, where the note is “20 min”, the IC50 was over 300 nM.

In the case of `CCOC(=O)c1nscc1Nc1cc(NC)n2ncc(C(=O)NC3CC3)c2n1` [Compound 38, ethyl 4-((3-(cyclopropylcarbamoyl)-7-(methylamino)pyrazolo[1,5-a]pyrimidin-5-yl)amino)isothiazole-3-carboxylate], the IC50 (20 min) is over 300 nM.

With `CNc1cc(Nc2csnc2C(=O)OC)nc2c(C(=O)NC3CC3)cnn12` [Compound 39, methyl 4-((3-(cyclopropylcarbamoyl)-7-(methylamino)pyrazolo[1,5-a]pyrimidin-5-yl)amino)isothiazole-3-carboxylate], the 50% inhibitory concentration (IC50) (20 min) was over 300 nM.

Take `CNc1cc(Nc2cccn(-c3ccc(OC)nn3)c2=O)nc2c(C(=O)NC3CC3)cnn12` [Compound 40, N-cyclopropyl-5-((1-(6-methoxypyridazin-3-yl)-2-oxo-1,2-dihydropyridin-3-yl)amino)-7-(methylamino)pyrazolo[1,5-a]pyrimidine-3-carboxamide]: the IC50 (20 min) was under 100 nM.

`CNc1cc(Nc2cn(C)nc2C(=O)Nc2ccc(N(C)C)cc2)nc2c(C(=O)NC3CC3)cnn12` [Compound 41, N-cyclopropyl-5-((3-((4-(dimethylamino)phenyl)carbamoyl)-1-methyl-1H-pyrazol-4-yl)amino)-7-(methylamino)pyrazolo[1,5-a]pyrimidine-3-carboxamide]: for the setting “20 min”, the IC50 is under 100 nM.
